Measured values reported in PMC12064818, “A general assay platform to study protein pharmacology using ligand-dependent structural dynamics” (Nature Communications, 2025).

Each molecule was assayed against T1, FLuc-C-HiBiT (Photinus pyralis, UniProt P08659) (assay: biochemical). Settings: enzyme activity, 10 uM ATP; read-out: IC50 or SDR50 (mM) / FLuc E.
T1 construct: firefly luciferase with C-terminal HiBiT tag, E. coli expressed
T1 sequence (P08659 whole entry, looked up): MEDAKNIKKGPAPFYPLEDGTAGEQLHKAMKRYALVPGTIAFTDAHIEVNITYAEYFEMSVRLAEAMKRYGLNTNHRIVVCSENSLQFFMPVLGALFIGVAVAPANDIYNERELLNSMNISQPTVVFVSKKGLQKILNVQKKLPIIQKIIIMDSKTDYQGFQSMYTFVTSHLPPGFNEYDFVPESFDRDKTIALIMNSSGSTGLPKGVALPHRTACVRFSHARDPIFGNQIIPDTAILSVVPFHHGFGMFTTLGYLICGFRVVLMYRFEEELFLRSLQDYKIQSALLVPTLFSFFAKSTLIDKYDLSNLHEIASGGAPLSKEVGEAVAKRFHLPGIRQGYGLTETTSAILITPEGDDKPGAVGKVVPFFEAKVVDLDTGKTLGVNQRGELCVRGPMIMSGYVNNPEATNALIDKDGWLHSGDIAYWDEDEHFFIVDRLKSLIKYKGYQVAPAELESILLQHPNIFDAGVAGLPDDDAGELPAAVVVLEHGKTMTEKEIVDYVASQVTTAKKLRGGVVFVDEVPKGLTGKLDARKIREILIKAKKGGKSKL

Row | Structure (SMILES) | IC50 [nM]
1 | COCC(C)Nc1ncnc2c1cnn2-c1cccc(Cl)c1 (centres unmarked) [NCGC00139080-01] | 11100
2 | Cc1ccc(-n2ncc3c(NC4CCCCC4)ncnc32)cc1C [NCGC00139081-01] | 1760
3 | CCN(c1ncnc2c1cnn2-c1cccc(Cl)c1)C1CCCCC1 [NCGC00139112-01] | 5560
4 | Cc1ccc(-n2ncc3c(N4CCC(C)CC4)ncnc32)cc1C [NCGC00139121-01] | 4950
5 | Cc1ccc(-n2ncc3c(N4CCC(Cc5ccccc5)CC4)ncnc32)cc1C [NCGC00139123-01] | > 30000
6 | Clc1cccc(-n2ncc3c(N4CCC(Cc5ccccc5)CC4)ncnc32)c1 [NCGC00139124-01] | > 30000
7 | Clc1cccc(-n2ncc3c(N4CCCCC4)ncnc32)c1 [NCGC00139126-01] | 989
8 | Cc1ccc(-n2ncc3c(NC4CCCCC4)ncnc32)cc1Cl [NCGC00139149-01] | 2790
9 | NC(=O)C1CCN(c2ncnc3c2cnn3-c2cccc(Cl)c2)CC1 [NCGC00139154-01] | > 30000
10 | Cc1cccc(-n2ncc3c(N4CCCCCC4)ncnc32)c1 [NCGC00139171-01] | 881
11 | CCOC(=O)C1CCCN(c2ncnc3c2cnn3-c2ccc(C)c(Cl)c2)C1 (centres unmarked) [NCGC00139179-01] | > 30000
12 | Cc1ccc(-n2ncc3c(N4CCCCCC4)ncnc32)cc1Cl [NCGC00139187-01] | 700
13 | Cc1ccc(-n2ncc3c(N(C)C)ncnc32)cc1Cl [NCGC00139189-01] | 2210
14 | Cc1ccc(-n2ncc3c(N4CCCCC4)ncnc32)cc1Cl [NCGC00139209-01] | 785
15 | Clc1ccc(-n2ncc3c(NC4CCCC4)ncnc32)cc1 [NCGC00139250-01] | 1240
16 | COc1ccc(-n2ncc3c(NC4CCCC4)ncnc32)cc1 [NCGC00139254-01] | 1760
17 | O=[S+]([O-])(c1cccc(C(F)(F)F)c1)n1c(/C=C/c2ccccc2)nc2ccccc21 [NCGC00139418-01] | 556
18 | Cc1ccc(/C=C/c2nc3ccccc3[nH]2)cc1 [NCGC00139422-01] | 44.2
19 | O=[S+]([O-])(c1cccc(Cl)c1)n1c(/C=C/c2ccccc2Cl)nc2ccccc21 [NCGC00139448-01] | 176
20 | CSc1ccc(/C=C/c2nc3ccccc3n2[S+](=O)([O-])c2ccc(F)c(C)c2)cc1 [NCGC00139450-01] | 700
21 | Cc1cccc(N2CCN(C(=O)CSCc3ccc(F)cc3)CC2)c1C [NCGC00140140-01] | > 30000
22 | Cc1ccc(/C=C/c2nc3ccccc3n2S(=O)(=O)c2cccc(Cl)c2)cc1 [NCGC00140605-01] | 124
23 | Cc1ccc(/C=C/c2nc3ccccc3n2S(=O)(=O)c2ccc(Br)cc2)cc1 [NCGC00140607-01] | 624

Row | Structure (SMILES) | IC50 [nM]
24 | CCc1ccc(C2=CC(c3cccc(C)c3)n3c(nc4ccccc43)N2)cc1 (centres unmarked) [NCGC00140745-01] | 881
25 | Cc1ccc(C2=CC(c3ccccc3C)n3c(nc4ccccc43)N2)cc1 (centres unmarked) [NCGC00140747-01] | 4420
26 | CC(C)c1ccc(C2=CC(c3ccc(C(C)C)cc3)n3nnnc3N2)cc1 (centres unmarked) [NCGC00140789-01] | > 30000
27 | CCOC(=O)N1CCc2c(sc(NCc3cccc(F)c3)c2C(=O)Nc2ccc(OC)cc2OC)C1 [NCGC00140797-01] | 2480
28 | CCOC(=O)N1CCc2c(sc(NCc3cccs3)c2C(=O)Nc2ccc(OC)cc2OC)C1 [NCGC00140799-01] | 3130
29 | CCOC(=O)N1CCc2c(sc(NCc3sccc3C)c2C(=O)Nc2ccc(OC)cc2OC)C1 [NCGC00140803-01] | 4950
30 | CCOC(=O)N1CCc2c(sc(NCc3ccc(OCC)cc3)c2C(=O)Nc2ccc(OC)cc2OC)C1 [NCGC00140805-01] | 3940
31 | Cc1ccc(C2=CC(c3ccccc3F)n3c(nc4ccccc43)N2)cc1C (centres unmarked) [NCGC00140809-01] | 3130
32 | COc1ccc(NC(=O)c2cc3ccccc3o2)c(OC)c1 [NCGC00141077-01] | 4950
33 | COc1ccc(-c2nc3ccccc3s2)cc1NC(=O)c1cccc(F)c1 [NCGC00141116-01] | > 30000
34 | COc1ccc(-c2nc3ccccc3s2)cc1NC(C)=O [NCGC00141118-01] | 6240
35 | Cc1ccc(-c2nnc(SCc3ccccc3)o2)cc1 [NCGC00141131-01] | 11100
36 | COc1ccccc1OCc1nc2ccccc2n1Cc1ccccc1 [NCGC00141136-01] | 14000
37 | Cc1ccc(-c2cc(N)n(-c3ccc(C)cc3)n2)cc1 [NCGC00141302-01] | 9890
38 | Cc1c(C(=O)Nc2ccc(C(=O)O)cc2)nnn1-c1ccccc1 [NCGC00141304-01] | 78.5
39 | Cc1ccc2nc(-c3ccc(NC(=O)c4ccccc4S(C)(=O)=O)cc3)sc2c1 [NCGC00141658-01] | 11100
40 | O=C(Nc1nc2c(F)cccc2s1)c1ccc2c(c1)OCCO2 [NCGC00141660-01] | 495
41 | O=C(Nc1c(C(=O)O)oc2ccccc12)c1ccc(C(F)(F)F)cc1 [NCGC00141808-01] | 9890
42 | NC(=O)C1CCN(c2ncnc3c2cnn3-c2ccccc2)CC1 [NCGC00141852-02] | > 30000
43 | CCN(CC)CCOc1ccc(-c2nc3cc(Cl)ccc3s2)cc1 [NCGC00160568-01] | 25400
44 | Cn1cc(/C=C2\C(=O)Nc3cccnc32)c2ccccc21 [NCGC00161398-03] | 9890
45 | Cc1ccc2nc(-c3ccc(/N=N/c4cc(S(=O)(=O)O)c5ccccc5c4O)cc3)sc2c1S(=O)(=O)O [NCGC00161973-01] | 12400
46 | C=C1[C@H](CO)[C@@H](O)C[C@@H]1n1cnc2c(=O)[nH]c(N)nc21 [NCGC00164563-11] | > 30000

Row | Structure (SMILES) | IC50 [nM]
47 | CCc1nn2c(-c3ccco3)ccnc2c1-c1ccc(F)cc1 [NCGC00164922-01] | 7850
48 | Clc1ccc2c(c1)-n1cc(-c3ccccc3)nc1CO2 [NCGC00164952-01] | > 30000
49 | Nc1ccc(-c2nc3ccccc3s2)cc1 [NCGC00165328-03] | 1760
50 | CC[n+]1c(/C=C/N(C)c2ccccc2)n(-c2ccccc2)c2ccc(-c3nc4ccccc4s3)cc21 [NCGC00165744-02] | 17600
51 | CNc1ccc(-c2nc3ccccc3s2)cc1 [NCGC00165760-02] | 78.5
52 | Nc1nccc(-c2c(-c3ccc(F)cc3)ncn2C2CCNCC2)n1 [NCGC00165900-01] | > 30000
53 | COc1ccc(OC)c(-c2nc3ccc(OC)cc3s2)c1 [NCGC00167604-01] | 8810
54 | COc1ccc2nc(-c3ccc(Oc4ccccc4)cc3)sc2c1 [NCGC00167605-01] | 11100
55 | C=Cc1ccc(-c2nc3ccc(OC)cc3s2)cc1 [NCGC00167606-01] | 442
56 | COc1ccc2nc(-c3cccc(C(C)=O)c3)sc2c1 [NCGC00167608-01] | 1240
57 | COc1ccc2nc(-c3ccc(N4CCN(C(=O)OC(C)(C)C)CC4)cc3)sc2c1 [NCGC00167609-02] | 14000
58 | CN(C(=O)OC(C)(C)C)c1ccc(-c2nc3ccccc3s2)cc1 [NCGC00167619-02] | 98.9
59 | CC(=O)c1cccc(-c2nc3ccccc3s2)c1 [NCGC00167620-01] | 9890
60 | c1ccc(COc2cccc(-c3nc4ccccc4s3)c2)cc1 [NCGC00167622-01] | 4950
61 | c1ccc(COc2ccccc2-c2nc3ccccc3s2)cc1 [NCGC00167623-01] | 12400
62 | FC(F)(F)c1cc(-c2nc3ccccc3s2)cc(C(F)(F)F)c1 [NCGC00167627-01] | 12400
63 | O=C(O)c1ccc(-c2noc(-c3ccccc3F)n2)cc1 [NCGC00168096-02] | 197
64 | O=C(O)c1ccc(-c2noc(-c3cccc(F)c3)n2)cc1 [NCGC00168097-02] | 4950
65 | O=C(O)c1ccc(-c2noc(-c3ccc(F)cc3)n2)cc1 [NCGC00168098-01] | 442
66 | O=C(O)c1ccc(-c2noc(-c3ccccc3Cl)n2)cc1 [NCGC00168099-01] | 1110
67 | O=C(O)c1ccc(-c2noc(-c3cccc(Cl)c3)n2)cc1 [NCGC00168100-03] | 7000
68 | O=C(O)c1ccc(-c2noc(-c3ccc(Cl)cc3)n2)cc1 [NCGC00168101-01] | 785
69 | COc1ccccc1-c1nc(-c2ccc(C(=O)O)cc2)no1 [NCGC00168102-02] | 1970

Row | Structure (SMILES) | IC50 [nM]
70 | COc1ccc(-c2nc(-c3ccc(C(=O)O)cc3)no2)cc1 [NCGC00168104-02] | 111
71 | O=C(O)c1ccc(-c2noc(-c3ccccc3C(F)(F)F)n2)cc1 [NCGC00168105-01] | 12400
72 | O=C(O)c1ccc(-c2noc(-c3cccc(C(F)(F)F)c3)n2)cc1 [NCGC00168106-02] | 8810
73 | O=C(O)c1ccc(-c2noc(-c3ccc(C(F)(F)F)cc3)n2)cc1 [NCGC00168758-01] | 313
74 | O=C(O)c1cccc(-c2noc(-c3ccccc3F)n2)c1 [NCGC00168759-10] | 6.24
75 | O=C(O)c1cccc(-c2noc(-c3cccc(F)c3)n2)c1 [NCGC00168760-01] | 7
76 | O=C(O)c1cccc(-c2noc(-c3ccc(F)cc3)n2)c1 [NCGC00168761-01] | 4.42
77 | O=C(O)c1cccc(-c2noc(-c3ccccc3Cl)n2)c1 [NCGC00168762-01] | 3.51
78 | O=C(O)c1cccc(-c2noc(-c3cccc(Cl)c3)n2)c1 [NCGC00168763-01] | 7
79 | O=C(O)c1cccc(-c2noc(-c3ccc(Cl)cc3)n2)c1 [NCGC00168764-01] | 2.21
80 | COc1ccccc1-c1nc(-c2cccc(C(=O)O)c2)no1 [NCGC00168765-01] | 6.24
81 | COc1cccc(-c2nc(-c3cccc(C(=O)O)c3)no2)c1 [NCGC00168766-01] | 3.94
82 | COc1ccc(-c2nc(-c3cccc(C(=O)O)c3)no2)cc1 [NCGC00168767-01] | 2.48
83 | O=C(O)c1cccc(-c2noc(-c3ccccc3C(F)(F)F)n2)c1 [NCGC00168768-02] | 62.4
84 | O=C(O)c1cccc(-c2noc(-c3cccc(C(F)(F)F)c3)n2)c1 [NCGC00168769-01] | 15.7
85 | O=C(O)c1cccc(-c2noc(-c3ccc(C(F)(F)F)cc3)n2)c1 [NCGC00168770-01] | 3.51
86 | Nc1ncnc2c1ncn2[C@@H]1O[C@H](CO)[C@@H](O)[C@@H]1O [NCGC00178869-10] | > 30000
87 | COC(=O)c1cccc(-c2noc(-c3ccccc3F)n2)c1 [NCGC00183594-01] | 3510
88 | O=C(O)c1ccccc1-c1noc(-c2ccccc2F)n1 [NCGC00183910-01] | 15700
89 | Cc1ccc(-c2nc3ccccc3s2)cc1NC(=O)c1ccc(-c2cccc(Cl)c2)o1 [NCGC00187468-01] | > 30000
